Results from ChEMBL document CHEMBL1201862, “PubChem BioAssay data set” (2004).
Calls of active or inactive are those of the source.

What was measured:
[1] = target: T1, Replicative DNA helicase DnaB (Mycobacterium tuberculosis, UniProt P9WMR3); assay: DnaB intein splicing inhibitors, dose response, biochemical, cell-free fluorescence (AID 449749); format: functional
T1 sequence (P9WMR3 whole entry): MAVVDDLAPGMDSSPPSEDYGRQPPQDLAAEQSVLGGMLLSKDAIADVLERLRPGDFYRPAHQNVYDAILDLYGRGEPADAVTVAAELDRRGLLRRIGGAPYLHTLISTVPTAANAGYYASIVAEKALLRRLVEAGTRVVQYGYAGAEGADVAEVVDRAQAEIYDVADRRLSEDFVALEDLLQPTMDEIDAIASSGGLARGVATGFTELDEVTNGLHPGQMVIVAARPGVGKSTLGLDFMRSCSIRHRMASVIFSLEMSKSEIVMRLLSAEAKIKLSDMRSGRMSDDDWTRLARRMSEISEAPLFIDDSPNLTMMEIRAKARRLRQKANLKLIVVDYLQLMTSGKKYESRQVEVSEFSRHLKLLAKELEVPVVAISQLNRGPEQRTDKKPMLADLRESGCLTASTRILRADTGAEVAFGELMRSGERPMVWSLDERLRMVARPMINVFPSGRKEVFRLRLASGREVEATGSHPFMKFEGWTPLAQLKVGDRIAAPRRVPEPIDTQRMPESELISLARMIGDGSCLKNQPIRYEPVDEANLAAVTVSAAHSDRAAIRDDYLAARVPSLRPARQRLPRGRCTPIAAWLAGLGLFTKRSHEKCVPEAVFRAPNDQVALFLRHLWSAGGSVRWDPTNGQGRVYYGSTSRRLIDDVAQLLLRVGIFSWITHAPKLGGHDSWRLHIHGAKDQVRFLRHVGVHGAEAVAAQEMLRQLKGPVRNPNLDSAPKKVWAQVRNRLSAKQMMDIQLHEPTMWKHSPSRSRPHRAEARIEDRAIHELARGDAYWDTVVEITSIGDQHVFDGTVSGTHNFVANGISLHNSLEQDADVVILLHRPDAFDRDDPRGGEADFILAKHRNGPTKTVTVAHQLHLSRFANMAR

Protein RecA = target: T2, Protein RecA (Mycobacterium tuberculosis, UniProt P9WHJ3); assay: Fluorescence Cell-Free Homogeneous Dose Retest to Identify Inhibitors of RecA-Intein Splicing Activity. [Related pubchem assays (depositor defined):AID2097, AID2223, AID489010, AID492950]; format: functional
T2 sequence (P9WHJ3 whole entry): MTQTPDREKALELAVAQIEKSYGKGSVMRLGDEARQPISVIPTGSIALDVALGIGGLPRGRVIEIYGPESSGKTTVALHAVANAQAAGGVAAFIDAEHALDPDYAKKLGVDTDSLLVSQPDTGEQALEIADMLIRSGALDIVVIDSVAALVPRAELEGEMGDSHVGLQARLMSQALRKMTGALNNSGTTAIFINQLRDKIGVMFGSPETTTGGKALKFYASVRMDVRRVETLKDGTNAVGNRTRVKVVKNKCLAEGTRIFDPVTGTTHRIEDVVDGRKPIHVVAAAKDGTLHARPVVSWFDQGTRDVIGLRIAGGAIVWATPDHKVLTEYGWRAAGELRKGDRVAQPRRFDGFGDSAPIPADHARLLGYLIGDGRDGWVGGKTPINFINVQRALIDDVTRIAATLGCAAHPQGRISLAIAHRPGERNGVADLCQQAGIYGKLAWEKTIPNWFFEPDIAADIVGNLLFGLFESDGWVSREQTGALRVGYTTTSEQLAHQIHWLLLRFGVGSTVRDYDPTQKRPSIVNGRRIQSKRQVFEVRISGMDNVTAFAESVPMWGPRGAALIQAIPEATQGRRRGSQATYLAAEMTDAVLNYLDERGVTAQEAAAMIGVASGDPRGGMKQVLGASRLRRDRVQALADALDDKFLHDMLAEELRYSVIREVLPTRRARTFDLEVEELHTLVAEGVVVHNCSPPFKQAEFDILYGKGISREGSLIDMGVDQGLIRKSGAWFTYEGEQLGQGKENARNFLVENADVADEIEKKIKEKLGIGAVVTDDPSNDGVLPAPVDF

[2] = target: T3, Apoptotic protease-activating factor 1 (Homo sapiens, UniProt O14727); format: functional
T3 sequence (O14727 whole entry): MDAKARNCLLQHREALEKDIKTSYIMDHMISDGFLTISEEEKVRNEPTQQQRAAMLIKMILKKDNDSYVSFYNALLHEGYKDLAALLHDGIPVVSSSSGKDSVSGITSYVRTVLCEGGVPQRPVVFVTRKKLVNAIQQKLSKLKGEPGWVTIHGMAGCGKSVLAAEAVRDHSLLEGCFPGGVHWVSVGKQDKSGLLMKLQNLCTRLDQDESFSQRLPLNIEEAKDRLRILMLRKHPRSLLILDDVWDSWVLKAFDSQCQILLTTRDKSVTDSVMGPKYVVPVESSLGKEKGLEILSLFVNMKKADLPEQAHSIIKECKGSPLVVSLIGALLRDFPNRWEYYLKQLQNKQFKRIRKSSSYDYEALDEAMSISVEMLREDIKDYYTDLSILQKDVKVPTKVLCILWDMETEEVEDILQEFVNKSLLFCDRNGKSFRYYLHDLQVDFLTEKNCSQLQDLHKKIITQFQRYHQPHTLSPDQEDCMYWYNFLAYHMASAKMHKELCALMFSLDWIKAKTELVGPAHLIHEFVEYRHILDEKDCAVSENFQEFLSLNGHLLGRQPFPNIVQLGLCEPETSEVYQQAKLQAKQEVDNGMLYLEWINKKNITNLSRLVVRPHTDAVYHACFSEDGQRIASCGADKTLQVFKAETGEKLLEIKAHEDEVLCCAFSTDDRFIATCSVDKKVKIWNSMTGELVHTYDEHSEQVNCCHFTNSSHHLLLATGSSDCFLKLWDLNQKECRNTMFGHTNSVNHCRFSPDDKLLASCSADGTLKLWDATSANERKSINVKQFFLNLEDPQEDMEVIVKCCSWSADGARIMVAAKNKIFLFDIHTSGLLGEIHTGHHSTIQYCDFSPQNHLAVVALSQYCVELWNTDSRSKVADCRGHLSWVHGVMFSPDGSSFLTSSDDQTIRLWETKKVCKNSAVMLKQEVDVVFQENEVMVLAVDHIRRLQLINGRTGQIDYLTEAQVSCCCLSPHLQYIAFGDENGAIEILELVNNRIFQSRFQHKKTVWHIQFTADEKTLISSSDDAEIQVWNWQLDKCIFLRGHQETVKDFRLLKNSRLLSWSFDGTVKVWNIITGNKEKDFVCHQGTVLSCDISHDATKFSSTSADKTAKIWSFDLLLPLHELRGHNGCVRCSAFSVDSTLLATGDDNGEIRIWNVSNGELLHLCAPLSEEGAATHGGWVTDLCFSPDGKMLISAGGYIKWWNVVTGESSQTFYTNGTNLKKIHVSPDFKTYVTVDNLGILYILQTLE

[3] = A549 cell cytotoxicity, dose response, cytotoxicity control, plate reader, cherry-pick, antagonist series (AID 743412); format: functional, cell-based
[4] = LGR2 antagonists, dose response, cell-based, HEK293, CRE-luciferase reporter, cherry pick, set 2 (AID 743343); format: functional;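 also: transfected cells were stimulated with diluted bursicon conditioned medium after compound addition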
[5] = HEK293 cell cytotoxicity, dose response, cytotoxicity control, plate reader, cherry-picked samples (AID 743446); format: functional, cell-based

In the case of `O=c1[nH]c(N2CCOCC2)cc2ccccc12`, the AC50 [1] is reported as > 120 µM (inactive), the EC50 (Protein RecA) is reported as > 380 µM (inconclusive) and the IC50 [2] is reported as 8.83 µM (active).

In the case of `CCC(COC)Oc1cc(NCc2ccccc2)c2ncn(C(C)C)c2c1` (configuration not stated), the AC50 [3] is reported as 26.1 µM (active), the AC50 [4] is reported as 23.1 µM (active) and the AC50 [5] is reported as 30.4 µM (active). For the same compound, the IC50 [2] was 16.7 µM (active).

For `O=[N+]([O-])c1ccc(Sc2nc3ccccc3o2)c([N+](=O)[O-])c1`, the AC50 [1] was 2.05 µM (active), the EC50 (Protein RecA) was 1.5 µM (active) and the AC50 [3] was 6.63 µM (active). For the same compound, the AC50 [4] was 24.9 µM (active) and the AC50 [5] was 8.49 µM (active).
